Laboratory results taken from article PMC2765968, “A novel inhibitor of Chlamydophila pneumoniae protein kinase D (PknD) inhibits phosphorylation of CdsD and suppresses bacterial replication” (BMC Microbiology, 2009).

Target: T1, CdsN (GST-CdsN) (Chlamydia pneumoniae, UniProt A0ABN3YQA5)
T1 construct: gene yopN; GST tag kept, eluted from glutathione-agarose
T1 sequence (A0ABN3YQA5 1-442): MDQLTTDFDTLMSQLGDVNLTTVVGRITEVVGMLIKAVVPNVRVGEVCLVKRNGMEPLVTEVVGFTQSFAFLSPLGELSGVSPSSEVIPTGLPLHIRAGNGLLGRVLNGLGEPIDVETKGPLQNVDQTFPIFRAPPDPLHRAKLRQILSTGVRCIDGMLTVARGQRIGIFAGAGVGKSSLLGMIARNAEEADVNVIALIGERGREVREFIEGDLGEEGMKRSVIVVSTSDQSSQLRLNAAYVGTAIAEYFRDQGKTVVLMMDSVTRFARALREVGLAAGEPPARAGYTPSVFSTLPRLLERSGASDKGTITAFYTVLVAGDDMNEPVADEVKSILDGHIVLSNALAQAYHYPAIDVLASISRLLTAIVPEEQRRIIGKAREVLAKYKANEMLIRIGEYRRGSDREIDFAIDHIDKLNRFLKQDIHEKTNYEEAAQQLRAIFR
Assay: ATP hydrolysis, malachite green phosphate assay
Format: biochemical
Conditions: […] ATP, […] Tris-HCl pH […] MgCl2, […] KCl, […] °C, […] min

Nc1ncnc2c1ncn2[C@@H]1O[C@H](COP(=O)(O)OP(=O)(O)OP(=O)(O)O)[C@@H](O)[C@H]1O [ATP] was tested. Which “ATP hydrolysis, malachite green phosphate assay” value did it give?
The value was “ATP hydrolysis by GST-CdsN purified from glutathione-agarose beads was measured using a malachite green assay”.
